Biological target: Mitogen-activated protein kinase 1 (Mus musculus, UniProt P63085)
Test: IMAP Assay: Activated ERK2 activity was determined in the IMAP assay format.

Sequence of Mitogen-activated protein kinase 1 (P63085 whole entry): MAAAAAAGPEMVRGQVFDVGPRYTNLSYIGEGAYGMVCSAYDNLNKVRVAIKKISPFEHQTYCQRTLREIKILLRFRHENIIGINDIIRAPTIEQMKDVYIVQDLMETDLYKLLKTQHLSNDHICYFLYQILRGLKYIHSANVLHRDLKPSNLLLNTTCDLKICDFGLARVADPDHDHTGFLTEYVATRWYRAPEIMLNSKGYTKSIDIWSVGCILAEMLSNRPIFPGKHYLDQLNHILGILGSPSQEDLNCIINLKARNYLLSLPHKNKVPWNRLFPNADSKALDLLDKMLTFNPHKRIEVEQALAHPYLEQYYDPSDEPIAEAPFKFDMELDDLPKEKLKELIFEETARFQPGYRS

COC[C@@]1(C(=O)Nc2ccc3[nH]nc(-c4ccnc(C5CC5)c4)c3c2)CCN(CC(=O)N2CC=C(c3ccc(-c4ncccn4)cc3)CC2)C1
IC50: 18.1 nM

Reference: ChEMBL document CHEMBL3638513, “Compounds that are ERK inhibitors” (2013)
